In patent publication US9156791B2, “Pyrazole compounds acting against allergic, immune and inflammatory conditions” (Glaxo Group Limited, priority 2010, dated 2015):

Key:
ICRAC current = assay: ICRAC assay: thapsigargin-induced calcium influx in Jurkat E6-1 cells (Fluo-4, FLIPR); format: cell-based; conditions: Homo sapiens, thapsigargin 5 μM, calcium add-back, inhibition of maximal fluorescence signal
Experimental: This ICRAC assay uses the SERCA inhibitor thapsigargin to produce calcium depletion and activate an ICRAC current. […] Changes in intracellular calcium levels are determined by the inclusion of the calcium sensitive fluorescent dye Fluo-4 and the use of the FLIPR detection system. Inhibitors of ICRAC would be expected to decrease the calcium influx upon calcium add-back, thus reducing fluorescent signal.
Jurkat E6-1 is an established immortalised T lymphocyte cell line previously shown to express a functional ICRAC current. Jurkat cells grow in suspension, are cultured in DMEM+10% FBS, maintained in T175 flasks at 37° C./5% CO2, and are subcultured twice a week with either 1:10-1:20 splits. 1 confluent T175 yields 100 ml of approximately 2×10^6 cells/ml.
Loading buffer contains; NaCl 145 mM, KCl 2.5 mM, HEPES 10 mM, Glucose 10 mM, MgCl2 1.2 mM, made up with water, then pH adjusted to 7.4 using NaOH 1 M. Finally Fluo-4AM & brilliant black are added to give a final assay concentration of 2 μM and 250 μM respectively. […]
The required seeding density for a 384 plate is 20,000 cells per well. […] Plates are then transferred to the FLIPR which initially measures baseline fluorescence, followed by any increase in fluorescence evoked by the online addition of a 6 mM (1.2 mM FAC) calcium solution. […]

[1] = In vitro microsomal clearance, rat; format: in vitro ADME
[2] = In vitro microsomal clearance, human; format: in vitro ADME
[3] = In vitro microsomal clearance, dog; format: in vitro ADME; conditions: Dog (Beagle)

Row | SMILES | IC50 (ICRAC current) [µM] | CIint ([1]; Rat (CD)) [mL/min g liver] | CIint ([1]; Rat (Wistar Han)) [mL/min g liver] | CIint [2] [mL/min g liver] | CIint [3] [mL/min g liver]
1 | O=C(Nc1cnn(Cc2c(F)cccc2C(F)(F)F)c1)c1c(F)cccc1F [Example 1, 2,6-Difluoro-N-(1-{[2-fluoro-6-(trifluoromethyl)phenyl]methyl}-1H-pyrazol-4-yl)benzamide] | 3.16 | 1.67 | 2.05 | 0.80 | 0.98
2 | [2H]C([2H])(c1c(F)cccc1C(F)(F)F)n1cc(NC(=O)c2c(F)cccc2F)cn1 [Example 3, 2,6-Difluoro-N-(1-(2-fluoro-6-(trifluoromethyl)-d2-benzyl)-1H-pyrazol-4-yl)benzamide] | – | 0.95 | 1.16 | <0.5 | 0.80
